For 1 substance, cellular uptake, IC50 and cell proliferation results are on record in US20250213603A1, “PHARMACEUTICAL COMPOSITION FOR TREATING CANCER” (SAGA UNIVERSITY, priority 2021, published 2025).

Holding throughout (type): cell-based
The subject of assay [1] is BV173. The assay is described as follows: Cellular uptake of TRITC-labelled CyD, confocal microscopy. The following applies: confocal microscopy (FIG. 6). As to the method:
The cellular uptake of FA-HP-β-CyD was evaluated as follows.
A leukemia cell line (BV173) was used in this example. The FA-HP-β-CyD synthesized in Example 1 was used.
10 mg HP-β-CyD or FA-HP-β-CyD and 1 mg of TRITC were dissolved in 400 μL of dimethyl sulfoxide (DMSO) with stirring for 24 hours and the solution was then gradually poured into acetone. A precipitate was obtained and was washed with water. This was freeze-dried to prepare TRITC-HP-β-CyD and TRITC-FA-HP-β-CyD.
The cells were then cultured at a cell density of 4×10e5 per well on a 6-well plate and were incubated with […], TRITC-HP-β-CyD, FA-HP-β-CyD, or HP-βCyD at different concentrations. A Zeiss LSM880 confocal microscope was used to observe the cells. Imaris (Zeiss) fluorescent image analysis software was used for analysis.
The Control refers to incubation at the same time as the other exposure groups, but without exposure to an agent. Cell localization was stained by DAPI and the cell membrane was stained with PlasMen Bright Green, and the cellular uptake of TRITC-FA-HP-β-CyD was evaluated using confocal microscopy.

Assay [2] deals with K562-IMR. Description: Cell proliferation inhibition, modified MTT assay (Cell Counting Kit-8). The following applies: incubation for 72 hours, average±SD of 3 independent experiments. How it is done: (§1) The proliferation inhibitory action in leukemia cell lines was evaluated using a modified dimethyl-thiazole-diphenyl-tetrazolium (MTT) assay as follows.
(§2) The hepatocyte line and leukemia cell lines (K562, BV173, Ba/F3 p190, Ba/F3 p210, MYL-R, K562-IMR, and KBM5-STI) were used in this example. The FA-HP-β-CyD synthesized in Example 1 was used.
(§3) The cell viability was evaluated using the trypan blue dye exclusion method. Cell proliferation was evaluated using a Cell Counting Kit-8 (Dojindo, Japan), which is an MTT assay. 2×10^4 of each cell was seeded with 100 μL RPMI1640 medium (Sigma-Aldrich, USA) per well to a flatbottom 96-well plate (Greiner Labortechnik, Hamburg, Germany), and incubation for 72 hours was carried out with exposure to HP-β-CyD and FA-HP-β-CyD at different concentrations (0 mM (control: CT), 0.05 mM, 0.1 mM, 0.25 mM, 0.5 mM, and 1 mM).
For orientation: Tetrazolium dyes change colour on reduction, which living cells bring about.

The subject of assay [3] is Ba/F3 P190. Described as above. As to the method: as §1, §2, §3

For orientation: IC50 means the concentration at which inhibition is half-maximal. “folic acid-appended hydroxypropyl-β-cyclodextrin [FA-HP-β-CyD]”: the cellular uptake entry in assay [1] is listed as “incorporated in large amounts into the cell”. Besides, the IC50 in assay [2] turned out to be 700 ± 55 µM; in assay [3] (Ba/F3 P190, incubation for 72 hours, average±SD of 3 independent experiments), 910 ± 160 µM. Further, the cell proliferation entry in assay [3] (Ba/F3 p190, 0.05-1 mM, 72 hours (FIG. 2)) was “inhibited in a dose-dependent manner”.
